Values quoted from earlier work in patent publication US20040057977A1, “Water-based pest bait compositions having water-sensitive insecticides and methods of making and use thereof” (priority 1999, published 2004).

Tests used:
[1] = system: cockroaches; details: in vivo
[2] = in vivo

| Structure (SMILES) | time to kill cockroaches [1] | eye and lung irritation [2] |
| --- | --- | --- |
| OB(O)O [boric acid] | roughly one week | slight eye and lung irritation |
| COP(=O)(NC(C)=O)SC (stereo not drawn) [Acephate, O,S-dimethyl acetylphosphoramidothioate] | within about two hours | – |
